# pEC50: −log10 of the molar value.
# Legend:
# Format in all cases: cell-based
# CFTR-R117H = target: T1, CFTR-R117H (Homo sapiens, UniProt P13569, R117H); test: YFP-halide influx assay for the CFTR-R117H; settings: CFTR-R117H mutant; read-out: EC50 measured by YFP-halide influx assay for the CFTR-R117H
# T1 construct: expressed in transfected cells
# Outline: (§1)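 HEK293 cells reverse-transfected with mutant CFTR and halide-sensitive YFP H148Q/I152L/F47L reporter, then expressed 24 h at 37 °C, 5% CO2. Fluorescence quenching recorded for 7 s after I^− injection; response expressed as 1−F/F0, with EC50 derived from response versus compound concentration.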
# CFTR ΔF508 mutant [1] = target: T2, CFTR ΔF508 mutant (Homo sapiens, UniProt P13569, DEL508-508); test: YFP-halide influx assay for the CFTR-ΔF508 mutation (96 well, CFBE41o- cells); settings: compounds of the invention, 96 well, forskolin 10.67 μM, read-out: EC50 measured by YFP-halide influx assay for the CFTR-ΔF508
# T2 construct: expressed in transfected cells; host or cells: CFBE41o- (adenoviral transduction)
# T2 sequence (P13569 with tags, fused parts or gaps DEL508-508): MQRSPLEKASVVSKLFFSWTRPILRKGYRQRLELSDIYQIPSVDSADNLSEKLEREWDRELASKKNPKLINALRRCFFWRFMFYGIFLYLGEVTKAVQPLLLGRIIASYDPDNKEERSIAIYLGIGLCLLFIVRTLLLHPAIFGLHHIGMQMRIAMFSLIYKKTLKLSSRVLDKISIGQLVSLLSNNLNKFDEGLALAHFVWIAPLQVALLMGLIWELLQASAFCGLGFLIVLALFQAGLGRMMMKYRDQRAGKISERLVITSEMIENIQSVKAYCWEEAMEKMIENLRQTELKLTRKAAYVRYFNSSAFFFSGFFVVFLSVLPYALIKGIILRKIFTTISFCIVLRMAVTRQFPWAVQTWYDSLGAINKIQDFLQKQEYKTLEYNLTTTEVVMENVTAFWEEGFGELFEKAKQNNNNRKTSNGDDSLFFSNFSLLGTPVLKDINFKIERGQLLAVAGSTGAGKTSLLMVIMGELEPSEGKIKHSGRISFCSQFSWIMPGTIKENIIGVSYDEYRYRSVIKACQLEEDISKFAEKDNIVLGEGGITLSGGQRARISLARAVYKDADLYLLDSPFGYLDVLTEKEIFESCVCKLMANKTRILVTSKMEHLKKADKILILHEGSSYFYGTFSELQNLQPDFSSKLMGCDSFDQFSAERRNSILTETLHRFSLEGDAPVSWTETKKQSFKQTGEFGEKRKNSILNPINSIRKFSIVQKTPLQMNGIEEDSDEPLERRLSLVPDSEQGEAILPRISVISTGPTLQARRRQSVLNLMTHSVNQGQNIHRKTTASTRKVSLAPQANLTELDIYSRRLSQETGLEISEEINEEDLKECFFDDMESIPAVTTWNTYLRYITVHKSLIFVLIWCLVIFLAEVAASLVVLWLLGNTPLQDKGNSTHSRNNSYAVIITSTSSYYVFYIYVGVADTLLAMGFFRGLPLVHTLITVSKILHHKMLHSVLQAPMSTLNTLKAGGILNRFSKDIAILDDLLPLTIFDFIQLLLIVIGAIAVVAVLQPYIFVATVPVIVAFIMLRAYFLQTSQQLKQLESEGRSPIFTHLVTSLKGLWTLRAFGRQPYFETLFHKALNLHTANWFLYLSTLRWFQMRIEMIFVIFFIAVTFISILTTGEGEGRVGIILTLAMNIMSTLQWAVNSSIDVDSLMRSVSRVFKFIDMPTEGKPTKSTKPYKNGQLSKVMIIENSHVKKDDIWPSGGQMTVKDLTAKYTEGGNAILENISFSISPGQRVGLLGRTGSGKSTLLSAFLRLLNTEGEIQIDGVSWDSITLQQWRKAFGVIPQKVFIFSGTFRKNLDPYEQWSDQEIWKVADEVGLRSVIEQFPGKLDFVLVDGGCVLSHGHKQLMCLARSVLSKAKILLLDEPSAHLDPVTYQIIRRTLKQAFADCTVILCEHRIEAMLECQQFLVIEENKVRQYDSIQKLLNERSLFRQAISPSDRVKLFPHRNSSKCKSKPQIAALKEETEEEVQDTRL
# Outline: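 CFBE41o- cells were adenovirally transduced with CFTR ΔF508 and the halide-sensitive YFP H148Q/I152L. They were then corrected either at 27 °C for 24 h or with a CFTR modulator for 24 h at 37 °C. After iodide injection, YFP quenching over 7 s was expressed as 1−F/F0, and EC50 was derived from the concentration–response plot.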
# CFTR-G1349D = target: T3, CFTR-G1349D (Homo sapiens, UniProt P13569, G1349D); test: YFP-halide influx assay for the CFTR-G1349D; settings: CFTR-G1349D mutant; read-out: EC50 measured by YFP-halide influx assay for the CFTR-G1349D
# T3 construct: expressed in transfected cells
# T3 sequence (P13569 whole entry G1349D): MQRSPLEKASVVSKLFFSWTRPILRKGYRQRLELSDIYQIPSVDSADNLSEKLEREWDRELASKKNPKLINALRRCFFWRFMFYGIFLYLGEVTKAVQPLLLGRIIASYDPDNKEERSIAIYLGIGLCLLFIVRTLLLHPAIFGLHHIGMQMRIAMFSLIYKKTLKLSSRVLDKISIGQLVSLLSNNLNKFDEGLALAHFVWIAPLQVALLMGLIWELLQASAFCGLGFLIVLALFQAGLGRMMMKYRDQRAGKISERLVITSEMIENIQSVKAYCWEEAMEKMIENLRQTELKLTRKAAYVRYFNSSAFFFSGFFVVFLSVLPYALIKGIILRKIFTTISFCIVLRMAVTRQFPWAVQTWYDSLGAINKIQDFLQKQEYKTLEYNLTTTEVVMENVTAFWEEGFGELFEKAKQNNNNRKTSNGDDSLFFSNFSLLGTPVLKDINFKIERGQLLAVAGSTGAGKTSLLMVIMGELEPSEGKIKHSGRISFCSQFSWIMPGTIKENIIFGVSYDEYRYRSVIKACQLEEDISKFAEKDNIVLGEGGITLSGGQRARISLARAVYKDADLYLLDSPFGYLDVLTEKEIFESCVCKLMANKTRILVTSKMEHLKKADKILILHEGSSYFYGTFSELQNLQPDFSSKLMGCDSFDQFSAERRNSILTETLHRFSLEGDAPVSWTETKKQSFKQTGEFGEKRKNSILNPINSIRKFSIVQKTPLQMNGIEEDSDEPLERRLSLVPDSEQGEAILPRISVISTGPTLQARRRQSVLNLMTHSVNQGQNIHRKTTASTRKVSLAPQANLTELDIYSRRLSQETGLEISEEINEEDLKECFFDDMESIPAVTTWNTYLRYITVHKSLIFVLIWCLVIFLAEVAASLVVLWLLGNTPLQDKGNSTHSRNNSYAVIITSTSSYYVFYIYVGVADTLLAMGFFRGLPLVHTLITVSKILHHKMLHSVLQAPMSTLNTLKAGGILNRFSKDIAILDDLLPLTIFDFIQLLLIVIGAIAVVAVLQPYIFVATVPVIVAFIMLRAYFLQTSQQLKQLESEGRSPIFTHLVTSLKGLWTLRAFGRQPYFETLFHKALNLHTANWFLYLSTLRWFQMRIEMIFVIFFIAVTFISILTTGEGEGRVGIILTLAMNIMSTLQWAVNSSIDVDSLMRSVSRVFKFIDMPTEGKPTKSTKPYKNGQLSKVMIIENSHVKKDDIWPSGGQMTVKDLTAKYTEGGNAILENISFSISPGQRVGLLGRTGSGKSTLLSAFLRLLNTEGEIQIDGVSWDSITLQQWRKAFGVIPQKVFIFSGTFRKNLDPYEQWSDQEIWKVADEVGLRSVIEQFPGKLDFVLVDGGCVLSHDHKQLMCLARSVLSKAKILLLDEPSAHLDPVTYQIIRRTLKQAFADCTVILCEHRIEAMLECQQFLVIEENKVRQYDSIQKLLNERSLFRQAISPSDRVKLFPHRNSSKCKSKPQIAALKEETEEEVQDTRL
# Outline: as §1
# CFTR ΔF508 mutant [2] = target: T2, CFTR ΔF508 mutant; test: YFP-halide influx assay for the CFTR-ΔF508 mutation (384 well, CFBE41o- cells, FDSS/μCell); settings: forskolin 10.67 μM, fluorescence after 36 seconds, read-out: EC50 measured by YFP-halide influx assay for the CFTR-ΔF508
# Outline: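 CFBE41o- cells were adenovirally transduced with ΔF508 CFTR and the YFP H148Q/I152L reporter. Cells were then held 24 h at 27 °C or treated 24 h at 37 °C with a CFTR modulator. Iodide-induced quench was recorded for 2 min, and EC50 was derived from 1−F/F0 at 36 s against compound concentration.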
# CFTR-G178R = target: T4, CFTR-G178R (Homo sapiens, UniProt P13569, G178R); test: YFP-halide influx assay for the CFTR-G178R; settings: read-out: EC50 measured by YFP-halide influx assay for the CFTR-G178R
# T4 construct: expressed in transfected cells
# T4 sequence (P13569 whole entry G178R): as the sequence (P13569 whole entry G1349D) above, with G178R, D1349G counted along it
# Outline: as §1
# T1 sequence (P13569 whole entry R117H): as the sequence (P13569 whole entry G1349D) above, with R117H, D1349G counted along it
pEC50 (CFTR-R117H),pEC50 (CFTR ΔF508 mutant [1]),pEC50 (CFTR-G1349D),pEC50 (CFTR ΔF508 mutant [2]),pEC50 (CFTR-G178R),Compound
6.78,8.00,7.20,8.47,7.24,"CC1(C)Cc2c(sc(NC(=O)c3ccn[nH]3)c2C(N)=O)C(C)(C)O1 [Compound 2, N-(3-carbamoyl-5,5,7,7-tetramethyl-5,7-dihydro-4H-thieno[2,3-c]pyran-2-yl)-1H-pyrazole-5-carboxamide]"
–,7.49,–,7.65,–,"CC1(C)Cc2c(sc(NC(=O)C3(O)CC3)c2C(N)=O)C(C)(C)O1 [Compound 4, 2-(1-hydroxycyclopropanecarboxamido)-5,5,7,7-tetramethyl-5,7-dihydro-4H-thieno[2,3-c]pyran-3-carboxamide]"
6.36,7.55,6.24,7.82,6.16,"CC1(C)Cc2c(sc(NC(=O)C3(CO)CC3)c2C(N)=O)C(C)(C)O1 [Compound 9, 2-(1-(hydroxymethyl)cyclopropanecarboxamido)-5,5,7,7-tetramethyl-5,7-dihydro-4H-thieno[2,3-c]pyran-3-carboxamide]"
–,6.92,–,7.13,–,"CC1(C)Cc2c(sc(NC(=O)C(C)(C)CO)c2C(N)=O)C(C)(C)O1 [Compound 10, 2-(3-hydroxy-2,2-dimethylpropanamido)-5,5,7,7-tetramethyl-5,7-dihydro-4H-thieno[2,3-c]pyran-3-carboxamide]"
